The results in this text go back to patent US20020111336A1, “Topical composition” (priority 2000, published 2002).

The data set is described as follows: Storage stability of the gel formulation containing calcipotriol and betamethasone dipropionate. Format: physicochemical. Particulars: gel formulation of Example 1; for BDP Kvant.: content of BDP; for Calcipotri. Kvant.: content of calcipotriol, in µg/g. The procedure: To produce 1 kg of gel formulation, 30 g of hydrogenated castor oil was melted together with 749 g of heptamethylnonane at 85-90° C. and cooled with homogenisation to about 60° C. The mixture was then cooled to 25-30° C. with stirring. 643 mg of betamethasone dipropionate was suspended in 50 g of heptamethylnonane and added to the homogenised gel base. 52.2 mg of calcipotriol hydrate or 50 mg of calcipotriol was dissolved in 170 g polyoxypropylene-15-stearyl ether and added to the mixture of the other ingredients, and the formulation was homogenised to ensure a homogenous distribution of the active components. The resulting gel formulation was stable when stored at 40° C. for 3 months, indicating a shelf life of at least 2 years at room temperature.

On to `CCC(=O)OCC(=O)[C@@]1(OC(=O)CC)[C@@H](C)C[C@H]2[C@@H]3CCC4=CC(=O)C=C[C@]4(C)[C@@]3(F)[C@@H](O)C[C@@]21C` [BDP, betamethasone dipropionate], for which the “% FOS” value is, setting by setting: (40° C. 1 month) 0.91%; (40° C. 3 months) 1.02%; (Start 5°C./1 month) 0.23%. Moreover, the BDP Kvant. (40° C. 1 month) stood at 0.634 mg/g and the BDP Kvant. (40° C. 3 months) came to 0.642 mg/g.

On to `C=C1/C(=C\C=C2/CCC[C@]3(C)[C@@H]([C@H](C)/C=C/[C@@H](O)C4CC4)CC[C@@H]23)C[C@@H](O)C[C@@H]1O` [Calcipotri., calcipotriol], for which, for the setting “40° C. 1 month”, the “% Epi” value worked out at 0.66%, the “% FOS” value was found to be 1.52% and the “Calcipotri. Kvant.” value stood at 50.16. For the same compound, under “40° C. 3 months”, the “% Epi” value was 0.8%, the “% FOS” value is reported as 1.33% and the “Calcipotri. Kvant.” value came out at 50.0. For the same compound, under “Start 5°C./1 month”, the “% Epi” value was 0.62% and the “% FOS” value was found to be 1.59%.
